Laboratory results published in ChEMBL document CHEMBL3856192, “Aroylhydrazone iron chelators: Tuning antioxidant and antiproliferative properties by hydrazide modifications” (Eur J Med Chem, 2016).

Tests used:
[1] = Stability in rabbit plasma assessed as parent compound remaining at 100 uM after 10 hrs by HPLC analysis; format: ADME, cell-free, Oryctolagus cuniculus; conditions: read-out: Stability
H9c2 [2] = assay: Protection against t-BHP-induced oxidative injury in rat H9c2 cells assessed as increase in cell viability incubated for 10 mins followed by stimulation with t-BHP for 24 hrs by neutral red staining based assay; format: functional
[3] = Cytotoxicity against rat H9c2 cells assessed as decrease in cell viability after 72 hrs by neutral red staining based assay; format: toxicity
[4] = Drug uptake in human SK-N-MC cells by beta scintillation counting analysis; format: ADME, cell-based
H9c2 [5] = assay: Selectivity index, ratio of IC50 for rat H9c2 cells to IC50 for human MCF7 cells; format: functional
[6] = Cytotoxicity against human HL60 cells assessed as decrease in cell viability after 72 hrs by MTT assay; format: functional, cell-based; conditions: HL-60, 72 h
[7] = Cytotoxicity against human MCF7 cells assessed as decrease in cell viability after 72 hrs by neutral red staining based assay; format: functional; conditions: MCF7, 72 h
[8] = Iron chelating activity assessed as Fe2+-compound complex formation at 5 uM measured for 360 secs by calcein based fluorescence assay relative to salicylaldehyde isonicotinoyl hydrazone; format: physicochemical; conditions: 0.1 h
MCF7 [9] = assay: Inhibition of 59Fe uptake in human MCF7 cells labeled with 59Fe transferrin at 25 uM after 3 hrs relative to control; format: functional; conditions: MCF7, 3 h
MCF7 [10] = assay: Induction of transferrin labeled 59Fe mobilization in human MCF7 cells assessed as cellular 59Fe released at 25 uM after 3 hrs by gamma scintillation counting analysis (reference value: 11%); format: functional
H9c2 [11] = assay: Selectivity index, ratio of IC50 for rat H9c2 cells to IC50 for human HL60 cells; format: functional
[12] = Selectivity index, ratio of IC50 for rat L8 cells to IC50 for human SK-N-MC cells; format: functional
SK-N-MC = assay: Selectivity index, ratio of IC50 for HUVEC to IC50 for human SK-N-MC cells
[13] = Antiproliferative activity against rat L8 cells after 22 to 72 hrs by MTT assay; format: cell-based
[14] = Antiproliferative activity against human SK-N-MC cells after 22 to 72 hrs by MTT assay; format: functional, cell-based
[15] = Antiproliferative activity against HUVEC after 22 to 72 hrs by MTT assay; format: cell-based; conditions: Homo sapiens
H9c2 [16] = assay: Protection against H202-induced oxidative injury in rat H9c2 cells assessed as increase in cell viability after 24 hrs by neutral red staining based assay; format: functional; conditions: H9c2, 24 h
[17] = Iron chelating activity assessed as Fe3+-compound complex-induced antioxidant activity by measuring ascorbate oxidation level at iron binding equivalent of 3 measured after 10 to 40 mins in presence of 500 uM of citrate relative to control; format: physicochemical
H9c2 [18] = assay: Selectivity index, ratio of IC50 for rat H9c2 cells to EC50 for rat H9c2 cells; format: functional
[19] = Iron chelating activity assessed as Fe3+-compound complex-induced antioxidant activity by measuring decrease in ascorbate oxidation level at iron binding equivalent of 3 measured after 10 to 40 mins in presence of 100 uM of citrate relative to control; format: physicochemical
[20] = Iron chelating activity assessed as Fe3+-compound complex-induced antioxidant activity by measuring ascorbate oxidation level at iron binding equivalent of 0.1 measured after 10 to 40 mins in presence of 500 uM of citrate relative to control; format: physicochemical

| SMILES | remaining at 10 h, 100 µM [1] | IC50 at 72 h [3] | Ratio IC50 (H9c2 [5]) | IC50 [6] | IC50 [7] | Activity [8] | inhibition at 25 µM (MCF7 [9]) | Activity (MCF7 [10]) | Ratio IC50 (H9c2 [11]) | Activity [17] | other results |
| --- | --- | --- | --- | --- | --- | --- | --- | --- | --- | --- | --- |
| C/C(=N\NC(=O)c1ccncc1)c1ccccc1O | 26% | 12.6 µM | – | – | – | – | – | – | – | – | EC50 (H9c2 [2]): 11.4 µM |
| CN(C)C(=S)NN=[14C](c1ccccn1)c1ccccn1 | – | – | – | – | – | – | – | – | – | – | Kd [4]: 2.45 µM |
| CC/C(=N\NC(=O)c1cccc2ccccc12)c1ccccc1O | 76% | > 200 µM | >57 | 3.5 µM | 3.5 µM | 84 to 109% | 17 to 61% | 50 - 56% | >57 | – | – |
| O=C(N/N=C/c1c(O)ccc2ccccc12)c1ccncc1 | – | – | – | – | – | – | – | – | – | – | Ratio IC50 [12]: 11; Ratio IC50 (SK-N-MC): 40; IC50 [13]: 5.4 µM; IC50 [14]: 0.5 µM; IC50 [15]: 20.1 µM |
| CC/C(=N\NC(=O)c1cccnc1)c1ccccc1O | – | 7.1 µM | 1.4 | 4.9 µM | 5 µM | 84 to 109% | 17 to 61% | 50 - 56% | 1.5 | 10 to 44% | EC50 (H9c2 [16]): 30 µM |
| C/C(=N\NC(=O)c1ccnnc1)c1ccccc1O | – | 22.8 µM | 3 | 6.4 µM | 7.6 µM | 97 to 107% | 17 to 61% | 54 - 57% | 3.6 | 10 to 44% | EC50 (H9c2 [16]): 55.3 µM |
| CC/C(=N\NC(=O)c1cnccn1)c1ccccc1O | – | > 100 µM | >4 | 27 µM | 27.3 µM | 84 to 109% | 17 to 61% | 50% | >4 | 10 to 44% | – |
| C/C(=N\NC(=O)c1cccc2ccccc12)c1ccccc1O | 95% | > 200 µM | >52 | 3.9 µM | 3.8 µM | 79% | 17 to 61% | 54 - 57% | >52 | – | – |
| C/C(=N\NC(=O)c1cccnc1)c1ccccc1O | – | 6.8 µM | 0.8 | 7.5 µM | 8.3 µM | 97 to 107% | 17 to 61% | 54 - 57% | 0.9 | 10 to 44% | – |
| C/C(=N\NC(=O)c1cnccn1)c1ccccc1O | – | 41.2 µM | 1.8 | 22.3 µM | 22.4 µM | 97 to 107% | 17 to 61% | 42% | 1.9 | 10 to 44% | – |
| CC/C(=N\NC(=O)c1ccc(-c2ccccc2)cc1)c1ccccc1O | 41% | > 100 µM | >78 | 1.3 µM | 1.3 µM | 84 to 109% | 17 to 61% | 51% | >78 | – | – |
| C/C(=N\NC(=O)c1ccc(-c2ccccc2)cc1)c1ccccc1O | 90% | > 100 µM | >22 | 2.7 µM | 4.6 µM | 7% | 17 to 61% | 41% | >37 | – | – |
| CC/C(=N\NC(=O)c1ccncc1)c1ccccc1O | 41% | – | – | – | 34.7 µM | – | – | – | – | – | EC50 (H9c2 [2]): 17.8 µM |
| CC/C(=N\NC(=O)c1ccnnc1)c1ccccc1O | 85% | > 200 µM | >13 | 9.1 µM | 14.9 µM | 84 to 109% | 17 to 61% | 50 - 56% | >21 | 10 to 44% | EC50 (H9c2 [16]): 25 µM; Ratio IC50/EC50 (H9c2 [18]): 8; Activity [19]: Active |
| CC(=O)N(O)CCCCCNC(=O)CCC(=O)N(O)CCCCCNC(=O)CCC(=O)N(O)CCCCCN [DEFEROXAMINE] | – | – | – | – | – | – | – | – | – | 16% | Activity [20]: 93% |
| O=C(N/N=C/c1ccccc1O)c1ccncc1 [SALINAZID] | – | 28.9 µM | 2.3 | 5.7 µM | 12.4 µM | – | 15% | 58% | 5.1 | 7% | EC50 (H9c2 [2]): 18.2 µM |
